pKi: −log10 of the molar value. Like-named read-outs stand apart in the source and are kept apart here.
Assays:
[1] = target: T1, PNP from E. coli (Escherichia coli, UniProt P0ABP8); test: Inhibition of PNP from E. coli; format: biochemical; conditions: previous work of the inventors
[2] = target: T2, PNP from H. pylori strain 26695 (Helicobacter pylori, UniProt P56463); test: Inhibition of PNP from H. pylori, spectrophotometric phosphorolysis assay; format: biochemical; conditions: formycins; kinetic methods of Example 1; read-out: inhibition constant
T2 construct: made in house; host or cells: E. coli
T2 sequence (P56463 whole entry): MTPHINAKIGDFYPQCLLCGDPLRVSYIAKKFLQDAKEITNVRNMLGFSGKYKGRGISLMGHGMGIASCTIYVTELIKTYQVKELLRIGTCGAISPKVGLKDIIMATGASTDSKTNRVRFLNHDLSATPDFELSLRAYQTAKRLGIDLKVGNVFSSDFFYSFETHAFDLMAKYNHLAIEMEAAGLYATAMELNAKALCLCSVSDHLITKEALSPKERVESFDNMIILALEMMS
Source text: The specific activity of PNP is usually determined using inosine as a substrate, in an assay in which the phosphorolysis product, hypoxanthine, is oxidized to uric acid in a reaction catalysed by xanthine oxidase. However, in the inhibition assay of PNP from H. pylori strain 26695, 7-methylguanosine (m^7Guo) and guanosine (Guo) were used as nucleoside substrates to avoid potential inhibition of xanthine oxidase by the test compounds. Phosphorolysis of these two substrates can be observed using a direct spectrophotometric method in a known manner.
Enzymatic activity was studied in a quartz cuvette with an optical path length of 1 cm or 0.5 cm. The absorbance of the reaction mixture, at the observation wavelength, never exceeded 1.2. The reaction volume was 1 ml or 1.4 ml in cuvettes with optical path lengths of 1 cm and 0.5 cm, respectively. The reaction mixture contained 50 mM Hepes/NaOH buffer, pH 7.0, 50 mM phosphate buffer, pH 7.0 (unless otherwise indicated), nucleoside substrate and inhibitor (with the latter not added to the reference/control reactions). Reactions were usually initiated by adding the enzyme to a cuvette containing the other reaction components. However, in cases where possible slow formation of an inhibitor-enzyme complex was checked, a second variant was also used involving incubation of the enzyme in a reaction mixture containing the inhibitor but lacking the substrate, 7-methylguanosine, and initiation of the reaction by adding this substrate.
In order to determine the inhibition constants and determine the molecular mechanism of inhibition, equations describing different mechanisms of inhibition were fitted to the obtained experimental data. GraphPad Prism 8 program was used. The model best describing the obtained data was selected based on the sum of squares of deviations using the F test for models with different number of parameters and the Akaike criterion (AIC) for models with the same number of parameters.
The following equations were used to describe competitive inhibition, characterized by the inhibition constant Kic, [1], uncompetitive, characterized by the inhibition constant Kiu, [2], non-competitive, characterized by the inhibition constant Kin, [3], and mixed, characterized by the inhibition constants Kiu and Kic, [4] (Segel, 1993):
The last equation can also be represented in the following form, as used by GraphPad Prism software, where Kiu=alpha Kic:
Immucillin A was chosen as the most promising one for potential pharmacological use in combating H. pylori infection because immucillin A has an amino substituent at position 6 of the 9-dazapurine ring, while PNP found in the human body requires a substituent at this position having electron-pairs-hydrogen bond acceptors, such as a substituent in the form of a keto group, to strongly bind the ligand. According to the invention, it is therefore believed that immucillin A will not interact with the host PNP, and thus allow selective inhibition of the PNP from H. pylori. Using the methods described above, the effect of immucillin A on the rate of the 7-methylguanosine (m^7Guo) phosphorolysis reaction catalysed by PNP from H. pylori was examined (FIG. 1). Since it is known (Schramm, 2018) that immucillins form a strongly bound complex with the enzyme relatively slowly, reactions were initiated by adding the substrate, m^7Guo, to a cuvette in which the enzyme was incubated with the inhibitor, as described in Example 1.
Data analysis was also performed as described in this Example. The range of substrate concentrations tested was 10-200 μM or 10-280 μM (shown in FIG. 4), and the range of inhibitor concentrations was chosen according to the observed degree of inhibition of the reaction, in order to obtain a significant degree of inhibition that allows determination of the inhibition mechanism and determination of inhibition constants (see FIG. 4). […]

[3] = test system: H. pylori strain 26695; test: Growth curve method / MIC in liquid culture, strain 26695; format: cell-based, Helicobacter pylori; conditions: 2.5 mM; strain not stated, method of Example 3
Procedure: The representative PNP inhibitor from H. pylori included in this study was immucillin A. The experiment was conducted using the growth curve method (two-fold serial dilutions in liquid medium). The tested H. pylori strains were cultured in Petri dishes with BHI solid medium supplemented with 10% FBS and 1% H. pylori Selective Supplement antibiotic kit, in anaerostats under microaerophilic conditions (5% 02, 10% CO2, 85% N2) at 37° C. for 3 days. Liquid culture of H. pylori was conducted overnight with shaking at 37° C. under microaerophilic conditions in BHI medium supplemented with 10% FBS and 1% H. pylori Selective Supplement antibiotic kit. Subsequently, for the essential experiment of determining the minimum inhibitory concentration (MIC), double strengthened liquid BHI medium was prepared, that is, supplemented with 20% FBS and a 2% set of H. pylori Selective Supplement antibiotics.
Bacterial proliferation inhibition experiments were carried out in 24-deep-well 2 ml flat-bottomed plates at a solution volume per well of 0.5 ml. In a single well, double strengthened (relative to the concentration planned for testing) solutions of the test inhibitor and double strengthened liquid BHI medium inoculated with H. pylori (10^4-10^5 CFU/ml in the final volume in the well, corresponding to the optical density of the culture OD600=0.05) were mixed together in a 1:1 ratio.
Kanamycin at a concentration of 25 μg/ml (Irie et al., 1997) was used as a positive control, while Mili-Q deionized water and BHI medium not inoculated with bacteria were used as negative controls. Plates were shaken at 37° C., under microaerophilic conditions. […] After 24 hours, the OD600 of samples containing the negative control, i.e. with Mili-Q deionized water, was about 1.2-1.4, corresponding to a bacterial concentration of about […].
In addition, the method proposed by Knezevic et al. (2018) was used to check whether the observed OD600 was from live bacterial cells. For this purpose, an equal volume of Christensen's double strength urea broth (that is, containing twice the concentration of all components) was added to the wells after incubation, and the plates were additionally incubated for 4 hours in an oxygen atmosphere at 37° C. During incubation, in wells with urease produced by live bacteria, urea is converted to ammonia and carbon dioxide, changing the pH of the solution and thus the colour of the phenol red indicator contained in the medium (from orange to purple).
All experiments were performed in triplicate.
The experiments were carried out using the growth curve method as described in Example 3, and the results obtained for two of the compounds tested are shown in FIG. 5. As the water solubility of the compounds tested, with the exception of 2,6-diCl-Pu, is relatively poor, two experiments were carried out: the first with the maximum concentration possible under the experimental conditions in aqueous solution with a small admixture of DMSO, and the second with higher concentrations that led to partial precipitation of the compound.
The antibacterial activity of two compounds, mefloquine (in the form of hydrochloride) and quinine, described in the literature as potent in vitro inhibitors of the PNP enzyme from Plasmodium falciparum (Dziekan et al., 2019), was tested. Using a two-fold serial dilution method in liquid medium (as described in Example 3), the MIC values for mefloquine and quinine were determined against clinical H. pylori strains resistant to MTZ, CLR and MTZ+CLR (M26, M91, M92 and M93), as well as the reference H. pylori strain 26695. Four clinical H. pylori strains isolated from adults, from primary infections (the subjects had never previously been treated against H. pylori infection) were tested. These strains come from the collection of the Department of Microbiology of the Medical University of Wroclaw and were obtained due to collaboration with Prof. Grażyna Gościniak, MD, PhD. […]

[4] = target: T2, PNP from H. pylori strain 26695; conditions: formycins; Wojtyś et al., 2021; read-out: inhibition constant; cited from earlier work
[5] = target: T1, PNP from E. coli; conditions: read-out: inhibition constant; cited from earlier work
[6] = target: T3, human PNP (Homo sapiens, UniProt P00491); conditions: Bzowska et al., 2000; cited from earlier work
T3 sequence (P00491 1-289): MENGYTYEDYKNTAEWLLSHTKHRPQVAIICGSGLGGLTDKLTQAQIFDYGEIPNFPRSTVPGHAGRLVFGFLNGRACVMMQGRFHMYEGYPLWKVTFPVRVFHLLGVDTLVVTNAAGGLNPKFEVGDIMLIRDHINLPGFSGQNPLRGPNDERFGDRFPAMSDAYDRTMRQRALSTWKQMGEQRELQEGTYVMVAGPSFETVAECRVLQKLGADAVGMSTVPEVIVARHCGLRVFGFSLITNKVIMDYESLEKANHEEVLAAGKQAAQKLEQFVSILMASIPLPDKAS

[7] = target: T4, AdSS from H. pylori strain 26695 (Helicobacter pylori, UniProt P56137); test: AdSS enzyme activity assay (adenylosuccinate formation, 280 nm); format: biochemical
T4 construct: made in house; host or cells: E. coli BL21 (DE3)
T4 sequence (P56137 1-411): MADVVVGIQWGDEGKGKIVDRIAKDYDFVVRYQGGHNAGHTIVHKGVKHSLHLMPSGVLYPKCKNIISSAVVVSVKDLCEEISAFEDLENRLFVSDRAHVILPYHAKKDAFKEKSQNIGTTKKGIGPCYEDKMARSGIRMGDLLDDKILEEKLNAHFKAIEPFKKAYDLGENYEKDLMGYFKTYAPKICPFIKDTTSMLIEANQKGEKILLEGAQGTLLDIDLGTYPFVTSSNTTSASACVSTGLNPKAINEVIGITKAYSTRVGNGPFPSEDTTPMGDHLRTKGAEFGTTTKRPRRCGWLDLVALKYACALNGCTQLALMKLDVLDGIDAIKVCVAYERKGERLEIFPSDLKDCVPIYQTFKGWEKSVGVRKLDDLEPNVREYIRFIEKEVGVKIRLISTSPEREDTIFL
Procedure: Enzymatic activity measurements were carried out in the similar manner as described in Bubić et al. (2018), at 25° C., in cuvettes with an optical path length of 1 cm containing 1 ml of reaction mixture consisting of 20 mM Hepes/NaOH buffer pH 7.7, 1 mM MgSO4 and the substrates, GTP, IMP and Asp. Saturating concentrations of substrates, namely GTP: 0.06 mM, IMP: 0.15 mM and Asp: 5 mM, were used to measure specific activity. The extinction coefficient at 280 nm of 1.17×10^4 M^−1 cm^−1 (adenylosuccinate formation) was used to calculate the concentration of the product formed (Rudolph and Fromm 1969). One unit (U) of AdSS specific activity is defined as μmol of adenylosuccinate produced per minute at 25° C. Specific activity is expressed as units of enzymatic activity per mg of protein (U/mg).
Inhibition of AdSS by PLP was examined first at saturation with all enzyme substrates and with increasing concentrations of the PLP inhibitor.
To determine the extent to which PLP-induced inactivation develops over time, the enzyme at low concentration (0.022 μM) was incubated at 25° C. in Hepes/NaOH buffer pH 7.0, in the presence of 1.11 mM MgSO4, 5.55 mM Asp, 167 μM IMP and PLP at various concentrations (ranging between 0.03 μM and 8.1 μM). The mixture contained all components necessary for the reaction with the exception of GTP, which, according to Dong and Fromm (1990), competes with PLP. Aliquots of 900 μl were taken from the incubated mixture at specified time intervals, placed in a cuvette and 100 μl of 0.6 mM GTP solution was added to initiate the reaction. The enzyme activity was determined and analysed in the known manner as described above.
Exponential decays were fitted to the data obtained for each concentration and the reaction rate constant of the inactivation process, k, and the residual enzymatic activity observed when the system reached equilibrium, A∞, were obtained as fitting parameters. From these parameters, the half-life of the inactivation process activity, t1/2, was calculated. The dependence of these three parameters on PLP concentration is shown in the lower panel of FIG. 12.
The inhibition of AdSS from H. pylori by pyridoxal (PI-h) was studied at saturation with all enzyme substrates and with increasing concentrations of the inhibitor, similar to that for PLP in Example 10a).

[8] = test system: H. pylori; conditions: Wojtyś et al., 2021; cited from earlier work

T1 sequence (P0ABP8 2-239): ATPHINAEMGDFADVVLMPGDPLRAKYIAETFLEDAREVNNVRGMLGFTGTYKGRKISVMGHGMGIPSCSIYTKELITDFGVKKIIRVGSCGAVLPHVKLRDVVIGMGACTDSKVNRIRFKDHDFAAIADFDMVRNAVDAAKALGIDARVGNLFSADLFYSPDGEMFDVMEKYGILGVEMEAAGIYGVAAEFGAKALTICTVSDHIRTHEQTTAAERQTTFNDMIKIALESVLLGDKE

Cn1cnc2c([C@@H]3O[C@H](CO)C(O)[C@@H]3O)nnc-2c1N (stereo partly shown) [6-methylformycin A]
stronger inhibition than formycin A [1]: 10 fold

Nc1ncnc2c([C@@H]3O[C@H](CO)[C@@H](O)[C@H]3O)[nH]nc12 [formycin A]
pKi [2]: 4.85
inhibition of H. pylori growth (% of the growth observed without the inhibitor) [3]: 50%
pKi [4]: 4.85
pKi [5]: ~5.30
inhibition of human PNP [6]: not an inhibitor

O=c1[nH]cnc2c([C@@H]3O[C@H](CO)[C@@H](O)[C@H]3O)n[nH]c12 [formycin B]
pKi [2]: 6.00
inhibition of H. pylori growth (% of the growth observed without the inhibitor) [3]: very weak inhibition
pKi [4]: 6.00
pKi [5]: ~5.30
inhibition of human PNP [6]: very weak inhibitor

O=CN(O)CC(=O)O [hadacidin]
inhibition of AdSS from H. pylori [7]: strongly inhibits
inhibition of proliferation of H. pylori [8]: does not inhibit the proliferation of bacteria

Reference: patent US20250195498A1, “INHIBITOR OF CELLULAR PURINE NUCLEOTIDE SALVAGE PATHWAY ENZYME FOR USE IN THE TREATMENT AND/OR PREVENTION OF HELICOBACTER PYLORI INFECTION AND/OR DISEASE ASSOCIATED WITH SUCH INFECTION AND PHARMACEUTICAL COMPOSITION COMPRISING THE SAME” (UNIWERSYTET WARSZAWSKI, priority 2022, published 2025)
